Laboratory results as given in paper PMC12775434, “Ultra-large virtual screening unveils potent agonists of the neuromodulatory orphan receptor GPR139” (Nature Communications, 2025).
Values joined by “and” are separate entries in the source; they are usually repeats but may differ in a detail not shown here. Identical values can stand only once.

How the values were obtained:
Type in all cases: cell-based
GPR139 (Gi2 activation) = target: T1, GPR139 (Gi2 activation) (Homo sapiens, UniProt Q6DWJ6); assay: BRET G protein activation (dissociation) assay, Gi2, HEK293A; conditions: for G protein activation, Gi2: individual replicates, listed as JNJ (S)
T1 construct: expressed in transfected cells; host or cells: HEK293A (transient, Lipofectamine 2000)
T1 sequence (Q6DWJ6 1-353): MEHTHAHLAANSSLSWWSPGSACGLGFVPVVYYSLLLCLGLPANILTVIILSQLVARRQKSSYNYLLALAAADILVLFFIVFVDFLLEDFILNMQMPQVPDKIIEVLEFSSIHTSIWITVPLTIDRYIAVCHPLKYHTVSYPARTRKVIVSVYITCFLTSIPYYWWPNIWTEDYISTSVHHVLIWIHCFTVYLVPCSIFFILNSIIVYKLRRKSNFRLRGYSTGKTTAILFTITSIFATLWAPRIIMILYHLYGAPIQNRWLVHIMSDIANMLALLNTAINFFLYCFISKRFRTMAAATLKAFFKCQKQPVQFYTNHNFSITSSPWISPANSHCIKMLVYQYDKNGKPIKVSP
Experimental: (§1) Primary screening and pharmacological characterization of compounds were performed using a CHO-K1 cell line that stably expresses human GPR139 (GPR139-CHOk1). The GPR139-CHOk1 cell line was kindly provided by H. Lundbeck A/S, Denmark[24]. GPR139-CHOk1 cells were grown in Ham’s F-12 Kaighn’s Modification Medium (ThermoFisher #21127030) supplemented with 10% dialyzed fetal bovine serum (US origin, ThermoFisher #26400044), 100 units/mL Penicillin-Streptomycin (ThermoFisher #15140122), and 1 mg/mL Geneticin (ThermoFisher #11811031). […] M1R-CHOk1 cells were purchased from The Missouri S&T cDNA Resource Center (#CEM100TN00). M1R-CHOk1 cells were grown in Ham’s F12 Medium (ThermoFisher #21765029) supplemented with 10% fetal bovine serum (Brazilian origin, ThermoFisher #10270106), 100 units/mL Penicillin-Streptomycin, and 0.25 mg/mL Geneticin. HEK293A cells transiently transfected with GPR139 were used for additional pharmacological assessment of signaling pathways activated by GPR139. HEK239A cells were generously provided by Dr. Asuka Inoue, Tohoku University, Japan. HEK293A cells were grown in Dulbecco’s Modified Eagle Medium (ThermoFisher #31966047) supplemented with 10% dialyzed fetal bovine serum and 100 units/mL Penicillin-Streptomycin. Cell lines were maintained at 37 °C in humidified incubator equilibrated with 5% CO2.
(§2) The G protein dissociation assay developed by the lab of Kirill A. Martemyanov was used to measure the coupling of multiple G proteins by GPR139[57]. The assay was performed as described previously with minor modifications. HEK293A cells were reverse transfected 20–24 h prior to assay. 50,000 cells were plated in each well of white opaque tissue culture treated 96-well plates (PerkinElmer #6005680) previously coated with poly-D-lysine. Transfection solutions were prepared as described, and 10 µL transfection solution was mixed with 100 µL cells in each well. The cells in each well were transfected with 18.9 ng GPR139, 6.3 ng Venus 1-155 Gγ2, 6.3 ng Venus 159-239 Gβ1, 6.3 ng masGRK3ct-NanoLuc and 12.6 ng Gαi2, 12.6 ng Gαi3, 12.6 ng GαoA, 12.6 ng Gαq or 25.2 ng Gα12 using 375 nL Lipofectamine 2000 Transfection Reagent. Transfections with Gαq and Gα12 contained 6.3 ng DNA of the active subunit S1 of pertussis toxin (PTX-S1). Each transfection was normalized to 150 ng total DNA with pcDNA3.1. The BRET biosensors were a kind gift from the Martemyanov lab. On the day of the experiment the cells were washed with HEPES buffer. Test compounds were diluted in HEPES buffer from DMSO stocks (final DMSO concentration of maximally 0.3%). NanoLuc Luciferase substrate NanoGlo—furimazine (Promega #N1120) was diluted 1000-fold (final) in HEPES buffer. NanoGlo and test compounds were added, and measurements were performed after 10 s for Gi3, 15 s for Gi2 and GoA, 20 s for Gq, and 90 s for G12—the timepoint where maximal signal occurred with each G protein, ensuring proper determination of the potency for the G protein coupling. Simultaneous dual emission was measured at 535 nm and 475 nm on LUMIstar Omega Microplate Reader (BMG Labtech) at room temperature. The BRET ratio of 535 nm/475 nm (Venus/NanoLuc), reflecting the dissociation of the G protein heterotrimer, was used to determine the G protein activation. The basal BRET ratio obtained with buffer condition was subtracted from the absolute BRET ratio at a given test compound concentration, and the responses were normalized to the one obtained with 10 µM JNJ-63533054 for the activation of Gi2.
(§3) Pharmacological data and statistical analyses were performed in GraphPad Prism v9–10 (Graphpad Software Inc., San Diego, CA), which are also specifically described in the figure and table legends. […]

GPR139 (GoA activation) = target: T2, GPR139 (GoA activation) (Homo sapiens, UniProt Q6DWJ6); assay: BRET G protein activation (dissociation) assay, GoA, HEK293A; conditions: for G protein activation, GoA: individual replicates, listed as JNJ (S)
T2 construct: expressed in transfected cells; host or cells: HEK293A (transient, Lipofectamine 2000)
T2 sequence (Q6DWJ6 1-353): T1 sequence (Q6DWJ6 1-353)
Experimental: as §1, §2, §3

GPR139 (Gq activation) = target: T3, GPR139 (Gq activation) (Homo sapiens, UniProt Q6DWJ6); assay: BRET G protein activation (dissociation) assay, Gq, HEK293A; conditions: for G protein activation, Gq: individual replicates, listed as JNJ (S)
T3 construct: expressed in transfected cells; host or cells: HEK293A (transient, Lipofectamine 2000)
T3 sequence (Q6DWJ6 1-353): T1 sequence (Q6DWJ6 1-353)
Experimental: as §1, §2, §3

[1] = HEK293-A, normalized to JNJ-63533054 (JNJ(S))

CC(NC(=O)CNC(=O)c1cccc(Cl)c1)c1ccccc1 (stereo not drawn) [JNJ-63533054, reference compound]
Emax (GPR139 (Gi2 activation); [1]): 109 ± 1% | EC50 (GPR139 (Gi2 activation); Supplementary Table 6, read-out: pEC50 Gi2 (converted)): 50.1 nM | G protein activation, Gi2 (GPR139 (Gi2 activation); log [compound] M -4.5): 109 % of JNJ-63533054 at Gi2 and 111 % of JNJ-63533054 at Gi2 and 108 % of JNJ-63533054 at Gi2 | G protein activation, Gi2 (GPR139 (Gi2 activation); log [compound] M -5.0): 106 % of JNJ-63533054 at Gi2 and 107 % of JNJ-63533054 at Gi2 and 108 % of JNJ-63533054 at Gi2 | G protein activation, Gi2 (GPR139 (Gi2 activation); log [compound] M -5.5): 107 % of JNJ-63533054 at Gi2 and 103 % of JNJ-63533054 at Gi2 and 104 % of JNJ-63533054 at Gi2 | G protein activation, Gi2 (GPR139 (Gi2 activation); log [compound] M -6.0): 102 % of JNJ-63533054 at Gi2 and 99 % of JNJ-63533054 at Gi2 and 98 % of JNJ-63533054 at Gi2 | G protein activation, Gi2 (GPR139 (Gi2 activation); log [compound] M -6.5): 92 % of JNJ-63533054 at Gi2 and 85 % of JNJ-63533054 at Gi2 (2×) | G protein activation, Gi2 (GPR139 (Gi2 activation); log [compound] M -7.0): 75 % of JNJ-63533054 at Gi2 and 67 % of JNJ-63533054 at Gi2 and 70 % of JNJ-63533054 at Gi2 | G protein activation, Gi2 (GPR139 (Gi2 activation); log [compound] M -7.5): 49 % of JNJ-63533054 at Gi2 and 44 % of JNJ-63533054 at Gi2 (2×) | G protein activation, Gi2 (GPR139 (Gi2 activation); log [compound] M -8.0): 21 % of JNJ-63533054 at Gi2 (2×) and 20 % of JNJ-63533054 at Gi2 | Emax (GPR139 (GoA activation); [1]): 114 ± 2% | EC50 (GPR139 (GoA activation); Supplementary Table 6): 79.4 nM | G protein activation, GoA (GPR139 (GoA activation); log [compound] M -4.5): 119 % of JNJ-63533054 at Gi2 (2×) and 112 % of JNJ-63533054 at Gi2 | G protein activation, GoA (GPR139 (GoA activation); log [compound] M -5.0): 117 % of JNJ-63533054 at Gi2 (2×) and 106 % of JNJ-63533054 at Gi2 | G protein activation, GoA (GPR139 (GoA activation); log [compound] M -5.5): 113 % of JNJ-63533054 at Gi2 and 106 % of JNJ-63533054 at Gi2 (2×) | G protein activation, GoA (GPR139 (GoA activation); log [compound] M -6.0): 108 % of JNJ-63533054 at Gi2 and 94 % of JNJ-63533054 at Gi2 and 102 % of JNJ-63533054 at Gi2 | G protein activation, GoA (GPR139 (GoA activation); log [compound] M -6.5): 97 % of JNJ-63533054 at Gi2 and 82 % of JNJ-63533054 at Gi2 and 91 % of JNJ-63533054 at Gi2 | G protein activation, GoA (GPR139 (GoA activation); log [compound] M -7.0): 74 % of JNJ-63533054 at Gi2 and 64 % of JNJ-63533054 at Gi2 and 65 % of JNJ-63533054 at Gi2 | G protein activation, GoA (GPR139 (GoA activation); log [compound] M -7.5): 43 % of JNJ-63533054 at Gi2 and 34 % of JNJ-63533054 at Gi2 and 33 % of JNJ-63533054 at Gi2 | G protein activation, GoA (GPR139 (GoA activation); log [compound] M -8.0): 17 % of JNJ-63533054 at Gi2 and 12 % of JNJ-63533054 at Gi2 and 13 % of JNJ-63533054 at Gi2 | Emax (GPR139 (Gq activation); [1]): 42 ± 3% | EC50 (GPR139 (Gq activation); Supplementary Table 6): 158 nM | G protein activation, Gq (GPR139 (Gq activation); log [compound] M -4.5): 40 % of JNJ-63533054 at Gi2 and 47 % of JNJ-63533054 at Gi2 and 36 % of JNJ-63533054 at Gi2 | G protein activation, Gq (GPR139 (Gq activation); log [compound] M -5.0): 40 % of JNJ-63533054 at Gi2 and 47 % of JNJ-63533054 at Gi2 and 39 % of JNJ-63533054 at Gi2 | G protein activation, Gq (GPR139 (Gq activation); log [compound] M -5.5): 42 % of JNJ-63533054 at Gi2 and 44 % of JNJ-63533054 at Gi2 and 32 % of JNJ-63533054 at Gi2 | G protein activation, Gq (GPR139 (Gq activation); log [compound] M -6.0): 39 % of JNJ-63533054 at Gi2 and 42 % of JNJ-63533054 at Gi2 and 31 % of JNJ-63533054 at Gi2 | G protein activation, Gq (GPR139 (Gq activation); log [compound] M -6.5): 29 % of JNJ-63533054 at Gi2 and 32 % of JNJ-63533054 at Gi2 and 23 % of JNJ-63533054 at Gi2 | G protein activation, Gq (GPR139 (Gq activation); log [compound] M -7.0): 17 % of JNJ-63533054 at Gi2 (2×) and 9 % of JNJ-63533054 at Gi2 | G protein activation, Gq (GPR139 (Gq activation); log [compound] M -7.5): 5.47 % of JNJ-63533054 at Gi2 and 7 % of JNJ-63533054 at Gi2 and 1.27 % of JNJ-63533054 at Gi2 | G protein activation, Gq (GPR139 (Gq activation); log [compound] M -8.0): 1.82 % of JNJ-63533054 at Gi2 and 0.745 % of JNJ-63533054 at Gi2 and -0.2 % of JNJ-63533054 at Gi2
